Measured values: US20180298053A1, “ANTIBIOTIC OLIGOPEPTIDES” (priority 2017, published 2018)
Where a name gives a salt, the structure may show the parent alone. Square brackets hold non-standard residues; d marks the D form. Peptide text beside a SMILES is read from it. * marks the point of attachment. ξ: configuration not given here. ξF = NC(Cc1ccccc1)C(=O)O; NHOH = ON*

Test system: E. coli (ATTC 8739)
Assay: Zone of inhibition test
Type: cell-based
Settings: at 12.5 μg, FIG. 1B
Procedure: Compound A was tested against L-phenylalanine-(S)-2-amino-N-hydroxy-4-(methylthio)butanamide hydrochloride (Example 3) in a side-by-side comparison in a conventional zone of inhibition test. In this test, both compounds were compared at various concentrations against E. coli (ATTC 8739) grown in a Petri dish using the antibiotic kanamycin as a control.

Compound: CSCC[C@H](NC(=O)C(N)Cc1ccccc1)C(=O)NO (stereo partly drawn) [Example 3, L-phenylalanine-(S)-2-amino-N-hydroxy-4-(methylthio)butanamide Hydrochloride] (H-[ξF]-Met-{NHOH})
- strength of zone of inhibition compared with cpd. A at 50 μg: substantially stronger
